Measured values reported in ChEMBL document CHEMBL4842358, “Design, synthesis and biological evaluation of sphingosine-1-phosphate receptor 2 antagonists as potent 5-FU-resistance reversal agents for the treatment of colorectal cancer” (Eur J Med Chem, 2021).
Active and inactive are the calls of the source. The calls are words filed in the database; no cut-off is given here.

Tests used:
[1] = Stability in mouse liver microsomes assessed as parent compound remaining at 2 umol/L measured after 60 mins in presence of NADPH regenerating system by LC-MS/MS analysis; type: ADME, Microsome; details: dose 2 µmol/L, read-out: Stabilty
[2] = Initial plasma concentration in Sprague-Dawley rat at 1 mg/kg, iv by LC-MS/MS analysis; type: ADME, organism-based
[3] = Initial drug concentration in Sprague-Dawley rat blood at 1 mg/kg, iv by LC-MS/MS analysis; type: ADME, organism-based
[4] = Half life in Sprague-Dawley rat plasma at 1 mg/kg, iv measured for 24 hrs by LC-MS/MS analysis; type: ADME, organism-based
Mus musculus [5] = assay: Downregulation of DPD expression in liver of athymic nude mouse xenografted with human SW620/5-FU at 1.08 mg/kg/day, iv administered for 24 days in presence of 5-FU and measured on day 24 by Western blot assay; type: functional, organism-based; details: time 24.0 day
[6] = Volume of distribution in Sprague-Dawley rat plasma at 1 mg/kg, iv measured for 24 hrs by LC-MS/MS analysis; type: ADME, organism-based
[7] = Ratio of drug level in Sprague-Dawley rat blood to plasma at 1 mg/kg, iv measured for 24 hrs by LC-MS/MS analysis; type: ADME, organism-based; details: blood and plasma
[8] = Half life in Sprague-Dawley rat blood at 1 mg/kg, iv measured for 24 hrs by LC-MS/MS analysis; type: ADME, organism-based
SW620/5-FU = assay: Antitumour activity against human SW620/5-FU cells xenografted in athymic nude mouse assessed as inhibition of tumour growth at 1.08 mg/kg/day, iv administered for 24 days; type: functional; details: 576 h, time 24 day, read-out: TGI
Mus musculus [9] = assay: Downregulation of DPD expression in tumour of athymic nude mouse xenografted with human SW620/5-FU at 1.08 mg/kg/day, iv administered for 24 days in presence of 5-FU and measured on day 24 by Western blot assay; type: functional, organism-based; details: time 24.0 day
[10] = Toxicity in athymic nude mouse xenografted with human SW620/5-FU cells assessed as changes in body weight at 1.08 mg/kg/day, iv administered for 24 days in presence of 5-FU and measured for every 4 days; type: organism-based; details: in vivo, 576 h, time 24 day
[11] = target: T1, Sphingosine 1-phosphate receptor 2 (Homo sapiens, UniProt O95136); assay: Binding affinity to S1PR2 (unknown origin) assessed as dissociation constant measured for 60 secs by surface plasmon resonance assay
[12] = target: T1, Sphingosine 1-phosphate receptor 2; assay: Binding affinity to S1PR2 (unknown origin) measured by surface plasmon resonance assay; details: filed as antagonist
[13] = Volume of distribution in Sprague-Dawley rat blood at 1 mg/kg, iv measured for 24 hrs by LC-MS/MS analysis; type: ADME, organism-based
[14] = target: T1, Sphingosine 1-phosphate receptor 2; assay: Antagonist activity at S1PR2 in human HCT-116 cells overexpressing DPD assessed as downregulation of DPD expression by western blot analysis; type: functional, cell-based; details: filed as antagonist, dose 0.16-2.5 µM
[15] = target: T1, Sphingosine 1-phosphate receptor 2; assay: Antagonist activity at S1PR2 in human SW620/5-FU cells assessed as reduction of DPD-catalyzed 5-FU degradation by measuring intracellular FBAL level at 2 uM measured after 6 hrs by HPLC-UV analysis; type: functional, cell-based; details: filed as antagonist
[16] = Downregulation of human S1PR2 expression in human SW620/5-FU cells at 0.16 to 2.5 uM cells measured by western blot assay; type: ADME, cell-based; details: dose 0.16-2.5 µM
HCT-116 = assay: Reversal of 5-FU resistance against human HCT-116 cells overexpressing DPD assessed as inhibition of cell proliferation measured after 72 hrs in presence of 5-FU by MTT assay; type: functional, cell-based; details: HCT-116, 72 h
[17] = target: T1, Sphingosine 1-phosphate receptor 2; assay: Antagonist activity at S1PR2 in human SW620/5-FU cells assessed as reduction in dosage of 5-FU at 0.5 to 2.5 uM measured after 6 hrs by HPLC-UV analysis; type: functional, cell-based; details: filed as antagonist, dose 0.5-2.5 µM
[18] = Toxicity in athymic nude mouse xenografted with human SW620/5-FU cells assessed as histopathological changes in liver at 1.08 mg/kg/day, iv administered for 24 days in presence of 5-FU and measured on day 24 by immunohistochemistry; type: organism-based; details: in vivo, 576 h, time 24 day
[19] = AUC (0 to t) in Sprague-Dawley rat plasma at 1 mg/kg, iv measured for 24 hrs by LC-MS/MS analysis; type: ADME, organism-based; design: dose 1 mg/kg, time 24 hrs
[20] = Mean residence time (0 to t) in Sprague-Dawley rat blood at 1 mg/kg, iv measured for 24 hrs by LC-MS/MS analysis; type: ADME, organism-based
NCM460 = assay: Cytotoxicity against human NCM460 cells assessed as cell viability measured after 72 hrs in presence of 5-FU by MTT assay; type: cell-based; details: NCM460, 72 h
[21] = Mean residence time (0 to infinity) in Sprague-Dawley rat plasma at 1 mg/kg, iv by LC-MS/MS analysis; type: ADME, organism-based
[22] = target: T1, Sphingosine 1-phosphate receptor 2; assay: Binding affinity to S1PR2 (unknown origin) assessed as association constant measured for 60 secs by surface plasmon resonance assay; details: filed as antagonist, time 60.0 sec
[23] = Mean residence time (0 to t) in Sprague-Dawley rat plasma at 1 mg/kg, iv measured for 24 hrs by LC-MS/MS analysis; type: ADME, organism-based
[24] = Downregulation of S1PR2 expression in human HCT-116 cells overexpressing DPD at 0.16 to 2.5 uM cells measured by western blot assay; type: ADME, cell-based; details: hct-116, 2.5 µM, dose 0.16-2.5 µM
[25] = Clearance in Sprague-Dawley rat blood at 1 mg/kg, iv measured for 24 hrs by LC-MS/MS analysis; type: ADME, organism-based
Mus musculus [26] = assay: Downregulation of DPD expression in colon of athymic nude mouse xenografted with human SW620/5-FU cells at 1.08 mg/kg/day, iv administered for 24 days in presence of 5-FU and measured on day 24 by immunohistochemistry; type: functional, organism-based; details: time 24.0 day
[27] = target: T1, Sphingosine 1-phosphate receptor 2; assay: Antagonist activity at S1PR2 in human HCT-116 cells overexpressing DPD assessed as downregulation of JMJD3 expression at 0.16 to 2.5 uM measured by western blot assay; type: functional, cell-based; details: filed as antagonist, dose 0.16-2.5 µM
[28] = target: T1, Sphingosine 1-phosphate receptor 2; assay: Antagonist activity at S1PR2 in human SW620/5-FU cells assessed as downregulation of JMJD3 expression at 0.16 to 2.5 uM measured by western blot assay; type: functional, cell-based; details: filed as antagonist, dose 0.16-2.5 µM
Mus musculus [29] = assay: Downregulation of DPD expression in tumour of athymic nude mouse xenografted with human SW620/5-FU at 1.08 mg/kg/day, iv administered for 24 days in presence of 5-FU and measured on day 24 by immunohistochemistry; type: functional, organism-based; details: time 24.0 day
[30] = Stability in rat liver microsomes assessed as parent compound remaining at 2 umol/L measured after 60 mins in presence of NADPH regenerating system by LC-MS/MS analysis; type: ADME, Microsome; details: dose 2 µmol/L, read-out: Stabilty
Mus musculus [31] = assay: Downregulation of DPD expression in liver of athymic nude mouse xenografted with human SW620/5-FU at 1.08 mg/kg/day, iv administered for 24 days in presence of 5-FU and measured on day 24 by immunohistochemistry; type: functional, organism-based; details: time 24.0 day
[32] = target: T1, Sphingosine 1-phosphate receptor 2; assay: Antagonist activity at S1PR2 in human SW620/5-FU cells assessed as reduction of DPD-catalyzed 5-FU degradation by measuring intracellular 5-FU level at 2 uM measured after 6 hrs by HPLC-UV analysis; type: functional, cell-based; details: filed as antagonist
[33] = target: T1, Sphingosine 1-phosphate receptor 2; assay: Antagonist activity at S1PR2 in human SW620/5-FU cells assessed as downregulation of DPD expression by western blot analysis; type: functional, cell-based; details: filed as antagonist
[34] = Mean residence time (0 to infinity) in Sprague-Dawley rat blood at 1 mg/kg, iv by LC-MS/MS analysis; type: ADME, organism-based
[35] = AUC (0 to infinity) in Sprague-Dawley rat plasma at 1 mg/kg, iv by LC-MS/MS analysis; type: ADME, organism-based; design: time infinity, route intravenous, dose 1 mg/kg
[36] = Reversal of 5-FU resistance against human SW620/5-FU cells xenografted in athymic nude mouse assessed as potentiation of 5-FU induced antitumor activity by measuring inhibition of tumor growth at 1.08 mg/kg/day, iv administered for 24 days in presence of 5-FU (reference value: 18.54%); type: functional; details: 576 h, time 24 day, read-out: TGI
[37] = Reversal of 5-FU resistance against human SW620/5-FU cells assessed as inhibition of cell proliferation measured after 72 hrs in presence of 5-FU by MTT assay; type: functional, cell-based
[38] = Clearance in Sprague-Dawley rat plasma at 1 mg/kg, iv measured for 24 hrs by LC-MS/MS analysis; type: ADME, organism-based
[39] = AUC (0 to infinity) in Sprague-Dawley rat blood at 1 mg/kg, iv by LC-MS/MS analysis; type: ADME, organism-based; design: route intravenous, time infinity, dose 1 mg/kg
[40] = AUC (0 to t) in Sprague-Dawley rat blood at 1 mg/kg, iv measured for 24 hrs by LC-MS/MS analysis; type: ADME, organism-based; design: time 24 hrs, dose 1 mg/kg

T1 sequence (O95136 whole entry): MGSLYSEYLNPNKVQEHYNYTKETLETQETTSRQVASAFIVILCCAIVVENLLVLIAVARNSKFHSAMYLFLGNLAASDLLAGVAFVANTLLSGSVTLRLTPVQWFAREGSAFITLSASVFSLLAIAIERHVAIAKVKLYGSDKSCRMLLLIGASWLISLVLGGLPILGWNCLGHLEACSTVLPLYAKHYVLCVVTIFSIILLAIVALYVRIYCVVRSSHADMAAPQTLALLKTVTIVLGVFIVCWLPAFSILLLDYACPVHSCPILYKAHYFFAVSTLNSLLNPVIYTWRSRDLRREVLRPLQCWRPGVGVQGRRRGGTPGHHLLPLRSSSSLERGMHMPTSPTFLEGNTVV

What does the source list for `O=C(Nc1cc(Cl)nc(Cl)c1)Nc1cc(Cl)nc(Cl)c1`?
remaining at 1 h, 2 µM [1]: 97.9%; C0 [2]: 1110 ng/mL; C0 [3]: 489 ng/mL; half-life [4]: 4.7 h; inhibition (Mus musculus [5]): Active; Vd [6]: 1.7 L/kg; blood plasma ratio at 24 h [7]: 0.484; half-life [8]: 4.4 h; inhibition in vivo at 1.08 mg/kg/day (SW620/5-FU): 7.5%; inhibition (Mus musculus [9]): Active; Activity [10]: Non-Toxic; Dissociation rate constant (koff) [11]: 6.97 10^-1/s; K [12]: 1.32 10^-8M; Vd [13]: 3.3 L/kg; inhibition [14]: Dose-Dependent Effect; Activity [15]: 0.17 mg/L; Activity [16]: Non-Toxic; EC50 (HCT-116): 0.18 µM; inhibition [17]: Active; Activity [18]: Non-Toxic; AUC(0-t) at 24 h [19]: 3840 ng·h/mL; MRT last at 24 h [20]: 6 h; EC50 (NCM460): 9.44 µM; MRT inf [21]: 7 h; Ka [22]: 5.28 10^6/M/s; MRT last at 24 h [23]: 6.2 h; Activity [24]: Non-Toxic; clearance [25]: 8.5 mL/min/kg; inhibition (Mus musculus [26]): Active; inhibition [27]: Active; inhibition [28]: Active; inhibition (Mus musculus [29]): Active; remaining at 1 h, 2 µM [30]: 95.2%; inhibition (Mus musculus [31]): Active; Activity [32]: 10 mg/L; inhibition [33]: Dose-Dependent Effect; MRT inf [34]: 6.7 h; AUC(0-inf) [35]: 3960 ng·h/mL; inhibition in vivo at 1.08 mg/kg/day [36]: 66.2%; EC50 [37]: 0.21 µM; clearance [38]: 4.17 mL/min/kg; AUC(0-inf) [39]: 1950 ng·h/mL; AUC(0-t) at 24 h [40]: 1890 ng·h/mL
